Assay results reported in US20100267561A1, “HERBICIDAL PYRIDAZINONE DERIVATIVES” (priority 2007, published 2010).

Tests used:
Type in all cases: in vivo
[1] = system: pigweed (Amaranthus retroflexus); test: Test B pre-/postemergence plant response
Method in brief: (§1)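 Visual scoring from 0 (no effect) to 100 (complete control) against untreated controls was done 13 to 15 days after greenhouse treatment. Chemicals were formulated in a surfactant-containing non-phytotoxic solvent and applied to soil preemergence or to 1- to 4-leaf (2-18 cm) plants postemergence.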

[2] = system: Italian ryegrass (Lolium multiflorum); test: Test B pre-/postemergence plant response
Method in brief: as §1

[3] = system: common (oilseed) sunflower (Helianthus annuus); test: Test B pre-/postemergence plant response; settings: Preemergence; for Sunflower plant response rating: scale 0 to 100
Method in brief: as §1

[4] = system: wheat (Triticum aestivum); test: Test B pre-/postemergence plant response
Method in brief: as §1

[5] = system: morningglory (Ipomoea coccinea); test: Test B pre-/postemergence plant response
Method in brief: as §1

[6] = system: giant foxtail (Setaria faberii); test: Test B pre-/postemergence plant response
Method in brief: as §1

[7] = system: lambsquarters (Chenopodium album); test: Test B pre-/postemergence plant response
Method in brief: as §1

[8] = system: surinam grass (Brachiaria decumbens); test: Test B pre-/postemergence plant response
Method in brief: as §1

[9] = system: bermudagrass (Cynodon dactylon); test: Test B pre-/postemergence plant response; settings: for Bermudagrass plant response rating: 8 g ai/ha
Method in brief: as §1

[10] = system: downy bromegrass (Bromus tectorum); test: Test B pre-/postemergence plant response; settings: for Bromegrass, Downy plant response rating: 8 g ai/ha
Method in brief: as §1

soybean (Glycine max) = test: Test B pre-/postemergence plant response
Method in brief: as §1

[11] = system: canarygrass (Phalaris minor); test: Test B postemergence plant response; settings: for Plant response rating, Canarygrass: Postemergence
Method in brief: (§2)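 Visual injury score from 0 (none) to 100 (complete control) versus controls, taken 13 to 15 days after treatment in the greenhouse; chemicals applied postemergence, as formulated, to plants of 1- to 4-leaf stage (2 to 18 cm tall); dash denotes no test result.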

[12] = system: windgrass (Apera spica-venti); test: Test B postemergence plant response; settings: for Plant response rating, Windgrass: Postemergence
Method in brief: as §2

[13] = system: chickweed (Stellaria media); test: Test B postemergence plant response; settings: for Plant response rating, Chickweed: Postemergence
Method in brief: as §2

[14] = system: winter barley (Hordeum vulgare); test: Test B postemergence plant response; settings: for Plant response rating, Barley: Postemergence, scale 0 to 100, 0 no effect, 100 complete control
Method in brief: as §2

[15] = 8 g ai/ha, postemergence, 0-100 scale
[16] = Postemergence, 16 g ai/ha, scale 0 to 100
[17] = Postemergence, 31 g ai/ha, scale 0 to 100
[18] = Postemergence, 62 g ai/ha, scale 0 to 100, 0 no effect, 100 complete control
[19] = Preemergence, 31 g ai/ha, scale 0 to 100 (0 no effect, 100 complete control)
[20] = Preemergence, 62 g ai/ha, 0 to 100 scale, 0 no effect, 100 complete control
[21] = Preemergence, 8 g ai/ha, scale 0 to 100
[22] = Preemergence, 16 g ai/ha, scale 0 to 100
[23] = Preemergence, 16 g ai/ha, scale 0 to 100 (0 no effect, 100 complete control)
[24] = 62 g ai/ha, scale 0 to 100, 0 no effect, 100 complete control

Compound: Cc1cc(-c2ccc(Cl)cc2)nn1-c1c(OC(=O)OCC(C)C)cnn(C)c1=O [Compound 57]
- Pigweed plant response rating [1, 15]: 0
- Plant response rating, Pigweed [1, 16]: 0
- Plant response rating, Pigweed [1, 17]: 0
- Plant response rating, Pigweed [1, 18]: 0
- Plant response rating, Pigweed [1, 19]: 0
- Plant response rating, Pigweed [1, 20]: 0
- Pigweed plant response rating [1, 21]: 0
- Pigweed plant response rating [1, 22]: 0
- Ryegrass, Italian plant response rating [2, 15]: 80
- Plant response rating, Ryegrass, Italian [2, 16]: 95
- Plant response rating, Ryegrass, Italian [2, 17]: 95
- Plant response rating, Ryegrass, Italian [2, 18]: 95
- Plant response rating, Ryegrass, Italian [2, 19]: 95
- Plant response rating, Ryegrass, Italian [2, 20]: 100
- Ryegrass, Italian plant response rating [2, 21]: 0
- Ryegrass, Italian plant response rating [2, 22]: 70
- Plant response rating, Sunflower ([3]; 31 g ai/ha, scale 0 to 100 (0 no effect, 100 complete control)): 0
- Plant response rating, Sunflower ([3]; 62 g ai/ha, 0 to 100 scale, 0 no effect, 100 complete control): 0
- Sunflower plant response rating ([3]; 8 g ai/ha): 0
- Sunflower plant response rating ([3]; 16 g ai/ha): 0
- Wheat plant response rating [4, 15]: 30
- Plant response rating, Wheat [4, 16]: 45
- Plant response rating, Wheat [4, 17]: 90
- Plant response rating, Wheat [4, 18]: 90
- Plant response rating, Wheat [4, 19]: 40
- Plant response rating, Wheat [4, 20]: 50
- Wheat plant response rating [4, 22]: 15
- Morningglory plant response rating [5, 15]: 0
- Plant response rating, Morningglory [5, 16]: 0
- Plant response rating, Morningglory [5, 17]: 0
- Plant response rating, Morningglory [5, 18]: 0
- Plant response rating, Morningglory [5, 19]: 0
- Plant response rating, Morningglory [5, 20]: 0
- Morningglory plant response rating [5, 21]: 0
- Morningglory plant response rating [5, 22]: 0
- Foxtail, Giant plant response rating [6, 15]: 80
- Plant response rating, Foxtail, Giant [6, 16]: 95
- Plant response rating, Foxtail, Giant [6, 17]: 98
- Plant response rating, Foxtail, Giant [6, 18]: 100
- Plant response rating, Foxtail, Giant [6, 19]: 100
- Plant response rating, Foxtail, Giant [6, 20]: 100
- Foxtail, Giant plant response rating [6, 21]: 98
- Foxtail, Giant plant response rating [6, 22]: 98
- Lambsquarters plant response rating [7, 15]: 0
- Plant response rating, Lambsquarters [7, 16]: 0
- Plant response rating, Lambsquarters [7, 17]: 0
- Plant response rating, Lambsquarters [7, 18]: 0
- Plant response rating, Lambsquarters [7, 19]: 20
- Plant response rating, Lambsquarters [7, 20]: 65
- Lambsquarters plant response rating [7, 21]: 0
- Lambsquarters plant response rating [7, 22]: 0
- Surinam Grass plant response rating [8, 15]: 65
- Plant response rating, Surinam Grass [8, 16]: 75
- Plant response rating, Surinam Grass [8, 17]: 100
- Plant response rating, Surinam Grass [8, 18]: 100
- Plant response rating, Surinam Grass [8, 19]: 100
- Plant response rating, Surinam Grass [8, 20]: 100
- Surinam Grass plant response rating [8, 21]: 60
- Surinam Grass plant response rating [8, 22]: 98
- Bermudagrass plant response rating ([9]; postemergence, 0-100 scale): 65
- Plant response rating, Bermudagrass [9, 16]: 85
- Plant response rating, Bermudagrass [9, 17]: 98
- Plant response rating, Bermudagrass [9, 18]: 100
- Bermudagrass plant response rating ([9]; Preemergence, scale 0 to 100 (0 no effect, 100 complete control)): 100
- Plant response rating, Bermudagrass [9, 23]: 100
- Plant response rating, Bermudagrass [9, 19]: 100
- Plant response rating, Bermudagrass [9, 20]: 100
- Bromegrass, Downy plant response rating ([10]; postemergence, 0-100 scale): 0
- Plant response rating, Bromegrass, Downy [10, 16]: 20
- Plant response rating, Bromegrass, Downy [10, 17]: 50
- Plant response rating, Bromegrass, Downy [10, 18]: 60
- Plant response rating, Bromegrass, Downy [10, 23]: 0
- Plant response rating, Bromegrass, Downy [10, 19]: 65
- Plant response rating, Bromegrass, Downy [10, 20]: 70
- Bromegrass, Downy plant response rating ([10]; Preemergence, scale 0 to 100): 0
- Soybean plant response rating (soybean (Glycine max); [15]): 0
- Plant response rating, Soybean (soybean (Glycine max); [16]): 0
- Plant response rating, Soybean (soybean (Glycine max); [17]): 0
- Plant response rating, Soybean (soybean (Glycine max); [18]): 0
- Plant response rating, Soybean (soybean (Glycine max); [19]): 0
- Plant response rating, Soybean (soybean (Glycine max); [20]): 0
- Soybean plant response rating (soybean (Glycine max); [21]): 0
- Soybean plant response rating (soybean (Glycine max); [22]): 0
- Canarygrass plant response rating [11, 15]: 0
- Plant response rating, Canarygrass ([11]; 16 g ai/ha, scale 0 to 100): 0
- Plant response rating, Canarygrass ([11]; 31 g ai/ha, scale 0 to 100): 0
- Plant response rating, Canarygrass [11, 24]: 60
- Windgrass plant response rating [12, 15]: 50
- Plant response rating, Windgrass ([12]; 16 g ai/ha, scale 0 to 100): 50
- Plant response rating, Windgrass ([12]; 31 g ai/ha, scale 0 to 100): 55
- Plant response rating, Windgrass [12, 24]: 70
- Chickweed plant response rating [13, 15]: 0
- Plant response rating, Chickweed ([13]; 16 g ai/ha, scale 0 to 100): 0
- Plant response rating, Chickweed ([13]; 31 g ai/ha, scale 0 to 100): 0
- Plant response rating, Chickweed [13, 24]: 0
- Barley plant response rating [14, 15]: 0
- Plant response rating, Barley ([14]; 16 g ai/ha): 0
- Plant response rating, Barley ([14]; 31 g ai/ha): 0
- Plant response rating, Barley ([14]; 62 g ai/ha): 40
